Laboratory results as given in article PMC7926352, “Synthesis, Characterization and In Vitro Evaluation of Novel 5-Ene-thiazolo[3,2-b][1,2,4]triazole-6(5H)-ones as Possible Anticancer Agents” (Molecules, 2021).
Read-outs that look alike come from different tables or passages of the source.

Key:
M14 [1] = system: M14
SK-MEL-28 [2] = system: SK-MEL-28
T-47D = type: cell-based; details: Breast Cancer; for CC50: read-out: LC50 (the source's name)
KM12 [3] = system: KM12
SNB-75 [4] = system: SNB-75
COLO 205 = type: cell-based; details: COLO 205, Colon cancer; for CC50: read-out: LC50 (the source's name)
OVCAR-3 [5] = system: OVCAR-3
A549/ATCC = type: cell-based; details: NSCLC; for CC50: read-out: LC50 (the source's name)
MDA-MB-435 [6] = system: MDA-MB-435
Leukemia cell lines [7] = system: Leukemia cell lines
KM12 [8] = system: KM12; remark: listed apart in the source
SNB-75 [9] = system: SNB-75; remark: listed apart in the source
Leukemia cell lines [10] = system: Leukemia cell lines; set-up: LC50, values range inside panel: unit not given beside the values
MDA-MB-435 [11] = system: MDA-MB-435; remark: listed apart in the source
SK-MEL-28 [12] = system: SK-MEL-28; remark: listed apart in the source
M14 [13] = system: M14; remark: listed apart in the source
OVCAR-3 [14] = system: OVCAR-3; remark: listed apart in the source
[15] = Homo sapiens, read-out: GI50, panel MG_MID
[16] = Homo sapiens, read-out: GI50, values range inside panel
[17] = Homo sapiens, read-out: LC50, panel MG_MID
[18] = Homo sapiens, read-out: LC50, values range inside panel

O=C(COc1ccc(Cl)cc1/C=c1\sc2ncnn2c1=O)Nc1ccc(Cl)cc1 [Compound 2h, (Z)-2-(4-Chloro-2-((6-oxothiazolo[3,2-b][1,2,4]triazol-5(6H)-ylidene)methyl)phenoxy)-N-(4-chlorophenyl)acetamide]
GI50 (M14 [1]; Homo sapiens, M14): 8.31 µM
CC50 (M14 [1]; Homo sapiens, M14, read-out: LC50): 45.7 µM
TGI (M14 [1]; M14, Melanoma): 20.89 µM
GI50 (SF-268; Homo sapiens, SF-268): 2.39 µM
CC50 (SF-268; Homo sapiens, SF-268, read-out: LC50): 37.1 µM
TGI (SF-268; SF-268, CNS Cancer): 10.47 µM
GI50 (SK-MEL-28 [2]; Homo sapiens, SK-MEL-28): 6.16 µM
CC50 (SK-MEL-28 [2]; Homo sapiens, SK-MEL-28, read-out: LC50): 51.3 µM
TGI (SK-MEL-28 [2]; SK-MEL-28, Melanoma): 20.41 µM
GI50 (MOLT-4; Homo sapiens, MOLT-4): 1.9 µM
CC50 (MOLT-4; Homo sapiens, MOLT-4, read-out: LC50): 22.9 µM
TGI (MOLT-4; MOLT-4, Leukemia): 5.01 µM
TGI, panel MG_MID (Colon cancer cell lines; Colon cancer subpanel): 17.39 µM
TGI, values range inside panel (Colon cancer cell lines; Colon cancer subpanel): 10.96 to 21.37 µM
GI50 (Colon cancer cell lines; [15]): 6.13 µM
GI50 (Colon cancer cell lines; [16]): 2.45 to 9.33 µM
CC50 (Colon cancer cell lines; [17]): 41.4 µM
CC50 (Colon cancer cell lines; [18]): 33.1 to 45.7 µM
TGI (HS 578T; HS 578T, Breast Cancer): 5.24 µM
GI50 (HS 578T; Homo sapiens, Hs-578T): 2.04 µM
CC50 (HS 578T; Homo sapiens, Hs-578T, read-out: LC50): 33.9 µM
TGI (HL-60 (TB); HL-60 (TB), Leukemia): 9.54 µM
GI50 (HL-60 (TB); Homo sapiens, HL-60): 2.69 µM
CC50 (HL-60 (TB); Homo sapiens, HL-60, read-out: LC50): 37.1 µM
TGI (T-47D): 25.70 µM
GI50 (T-47D; Homo sapiens, T47D): 7.76 µM
CC50 (T-47D; Homo sapiens, T47D): 28.8 µM
GI50 (ACHN; Homo sapiens): 12.6 µM
CC50 (ACHN; Homo sapiens, read-out: LC50): 50.1 µM
TGI (ACHN; Renal Cancer): 25.11 µM
GI50 (KM12 [3]; Homo sapiens, KM12): 2.45 µM
CC50 (KM12 [3]; Homo sapiens, KM12, read-out: LC50): 33.1 µM
TGI (KM12 [3]; KM12, Colon cancer): 10.96 µM
GI50 (TK-10; Homo sapiens, TK-10): 7.58 µM
CC50 (TK-10; Homo sapiens, TK-10, read-out: LC50): 35.5 µM
TGI (TK-10; TK-10, Renal Cancer): 20.41 µM
GI50 (LOX IMVI; Homo sapiens): 2.63 µM
CC50 (LOX IMVI; Homo sapiens, read-out: LC50): 33.1 µM
TGI (LOX IMVI; Melanoma): 11.22 µM
GI50 (PC-3; Homo sapiens, PC-3): 3.8 µM
CC50 (PC-3; Homo sapiens, PC-3, read-out: LC50): 45.7 µM
TGI (PC-3; PC-3, Prostate Cancer): 16.21 µM
GI50 (SNB-75 [4]; Homo sapiens, SNB-75): 3.38 µM
CC50 (SNB-75 [4]; Homo sapiens, SNB-75, read-out: LC50): 87.1 µM
TGI (SNB-75 [4]; SNB-75, CNS Cancer): 15.48 µM
GI50 (U251; Homo sapiens, U-251): 4.07 µM
CC50 (U251; Homo sapiens, U-251, read-out: LC50): 38 µM
TGI (U251; U251, CNS Cancer): 14.45 µM
TGI (COLO 205): 19.95 µM
GI50 (COLO 205; Homo sapiens): 7.58 µM
CC50 (COLO 205; Homo sapiens): 44.7 µM
TGI (DU-145; DU-145, Prostate Cancer): 4.46 µM
GI50 (DU-145; Homo sapiens, DU-145): 1.54 µM
CC50 (DU-145; Homo sapiens, DU-145, read-out: LC50): 15.8 µM
GI50 (OVCAR-3 [5]; Homo sapiens, OVCAR-3): 2.18 µM
CC50 (OVCAR-3 [5]; Homo sapiens, OVCAR-3, read-out: LC50): 19.5 µM
TGI (OVCAR-3 [5]; OVCAR-3, Ovarian Cancer): 5.62 µM
TGI (HCT-116; HCT-116, Colon cancer): 20.89 µM
GI50 (HCT-116; Homo sapiens, HCT-116): 7.58 µM
CC50 (HCT-116; Homo sapiens, HCT-116, read-out: LC50): 45.7 µM
TGI (NCI/ADR-RES; Breast Cancer): 41.68 µM
GI50 (NCI/ADR-RES; Homo sapiens): 15.5 µM
CC50 (NCI/ADR-RES; Homo sapiens, read-out: LC50): > 100 µM
TGI (HOP-62; HOP-62, NSCLC): 16.59 µM
GI50 (HOP-62; Homo sapiens, HOP-62): 4.67 µM
CC50 (HOP-62; Homo sapiens, HOP-62, read-out: LC50): 42.6 µM
GI50 (A549/ATCC; Homo sapiens): 15.5 µM
CC50 (A549/ATCC; Homo sapiens): 60.2 µM
TGI (A549/ATCC): 30.90 µM
GI50 (MDA-MB-435 [6]; Homo sapiens, MDA-MB-435): 2.95 µM
CC50 (MDA-MB-435 [6]; Homo sapiens, MDA-MB-435, read-out: LC50): 28.8 µM
TGI (MDA-MB-435 [6]; MDA-MB-435, Breast Cancer): 12.58 µM
GI50 (Leukemia cell lines [7]; [15]): 1.92 µM
GI50 (Leukemia cell lines [7]; [16]): 1.35 to 2.69 µM
CC50 (Leukemia cell lines [7]; [17]): 26.8 µM
CC50 (Leukemia cell lines [7]; [18]): 7.58 to 49 µM
TGI, panel MG_MID (Leukemia cell lines [7]; Leukemia subpanel): 6.85 µM
TGI, values range inside panel (Leukemia cell lines [7]; Leukemia subpanel): 3.16 to 14.45 µM
GI50 (MCF7; Homo sapiens, MCF7): 0.79 µM
CC50 (MCF7; Homo sapiens, MCF7, read-out: LC50): 19.5 µM
TGI (MCF7; MCF7, Breast Cancer): 4.07 µM

Ethyl(Z)-4-(3-(4-chloro-2-((6-oxothiazolo[3,2-b][1,2,4]triazol-5(6H)-ylidene)methyl)phenyl)propanamido)benzoate [Compound 2i]
CC50 (OVCAR-8): 85.1 µM
GI50 (M14 [1]; M14, Melanoma): 12.6 µM
TGI (M14 [1]; M14, Melanoma): 27.54 µM
GI50 (SF-268; SF-268, CNS Cancer): 6.02 µM
TGI (SF-268; SF-268, CNS Cancer): 28.84 µM
GI50 (SK-MEL-28 [2]; SK-MEL-28, Melanoma): 12 µM
TGI (SK-MEL-28 [2]; SK-MEL-28, Melanoma): 23.98 µM
GI50 (MOLT-4; MOLT-4, Leukemia): 18.2 µM
TGI (MOLT-4; MOLT-4, Leukemia): 52.48 µM
TGI, panel MG_MID (Colon cancer cell lines; Colon cancer subpanel): 26.51 µM
TGI, values range inside panel (Colon cancer cell lines; Colon cancer subpanel): 21.37 to 33.11 µM
GI50 (Colon cancer cell lines; read-out: GI50, panel MG_MID, Colon cancer subpanel): 12.4 µM
GI50 (Colon cancer cell lines; read-out: GI50, values range inside panel, Colon cancer subpanel): 9.55 to 16.6 µM
GI50 (HS 578T; HS 578T, Breast Cancer): 3.54 µM
TGI (HS 578T; HS 578T, Breast Cancer): 19.49 µM
GI50 (HL-60 (TB); HL-60 (TB), Leukemia): 12.3 µM
TGI (HL-60 (TB); HL-60 (TB), Leukemia): 41.68 µM
CC50 (HL-60 (TB); read-out: LC50, HL-60 (TB), Leukemia): > 100 µM
CC50 (KM12 [8]): 55 µM
GI50 (T-47D): 11 µM
TGI (T-47D): 38.01 µM
CC50 (T-47D): 41.7 µM
GI50 (ACHN; Renal Cancer): 15.5 µM
TGI (ACHN; Renal Cancer): 28.84 µM
GI50 (KM12 [3]; KM12, Colon cancer): 10.2 µM
TGI (KM12 [3]; KM12, Colon cancer): 23.98 µM
GI50 (TK-10; TK-10, Renal Cancer): 16.2 µM
TGI (TK-10; TK-10, Renal Cancer): 29.51 µM
GI50 (LOX IMVI; Melanoma): 5.62 µM
TGI (LOX IMVI; Melanoma): 18.19 µM
CC50 (SNB-75 [9]): > 100 µM
GI50 (PC-3; PC-3, Prostate Cancer): 11.2 µM
TGI (PC-3; PC-3, Prostate Cancer): 38.01 µM
GI50 (SNB-75 [4]; SNB-75, CNS Cancer): 13.2 µM
TGI (SNB-75 [4]; SNB-75, CNS Cancer): 44.66 µM
CC50 (Leukemia cell lines [10]): 99.2 µM
LC50, values range inside panel (Leukemia cell lines [10]): 95.49– >100
CC50 (MDA-MB-435 [11]): > 100 µM
CC50 (SK-MEL-28 [12]): 49 µM
GI50 (U251; U251, CNS Cancer): 6.6 µM
TGI (U251; U251, CNS Cancer): 19.05 µM
GI50 (COLO 205): 14.8 µM
TGI (COLO 205): 31.62 µM
CC50 (COLO 205): 67.6 µM
GI50 (DU-145; DU-145, Prostate Cancer): 3.98 µM
TGI (DU-145; DU-145, Prostate Cancer): 16.21 µM
GI50 (OVCAR-3 [5]; OVCAR-3, Ovarian Cancer): 13.8 µM
TGI (OVCAR-3 [5]; OVCAR-3, Ovarian Cancer): 27.54 µM
CC50 (OVCAR-5): 58.9 µM
CC50 (M14 [13]): 58.9 µM
GI50 (HCT-116; HCT-116, Colon cancer): 9.55 µM
TGI (HCT-116; HCT-116, Colon cancer): 23.44 µM
GI50 (NCI/ADR-RES; Breast Cancer): 21.9 µM
TGI (NCI/ADR-RES; Breast Cancer): 67.60 µM
CC50 (SN12C): 58.9 µM
GI50 (HOP-62; HOP-62, NSCLC): 13.2 µM
TGI (HOP-62; HOP-62, NSCLC): 26.91 µM
CC50 (OVCAR-3 [14]): 55 µM
GI50 (A549/ATCC): 19.5 µM
TGI (A549/ATCC): 39.81 µM
CC50 (A549/ATCC): 79.4 µM
GI50 (MDA-MB-435 [6]; MDA-MB-435, Breast Cancer): 10.5 µM
TGI (MDA-MB-435 [6]; MDA-MB-435, Breast Cancer): 25.11 µM
TGI, panel MG_MID (Leukemia cell lines [7]; Leukemia subpanel): 51.55 µM
GI50 (Leukemia cell lines [7]; read-out: GI50, panel MG_MID, Leukemia subpanel): 11.3 µM
GI50 (Leukemia cell lines [7]; read-out: GI50, values range inside panel, Leukemia subpanel): 2.88 to 18.2 µM
CC50 (OVCAR-4): > 100 µM
GI50 (MCF7; MCF7, Breast Cancer): 5.12 µM
TGI (MCF7; MCF7, Breast Cancer): 19.05 µM
CC50 (BT-549): 60.2 µM
